Measurements taken from patent US11685716B2, “Plant growth inhibiting agent, and plant growth inhibiting method using same” (NATIONAL UNIVERSITY CORPORATION KUMAMOTO UNIVERSITY, priority 2017, dated 2023).

Columns and labels:
thale cress [1] = assay: Activities on plants: growth of thale cress on agar medium (Evaluation 1, 6); format: in vivo, thale cress (Col-0, wild-type strain); conditions: thale cress Col-0, agar medium, 7 days
Protocol: The test compound (compound (6a)) and DMSO for a control experiment, were added at this stage and blended. Fifty ml each of the medium was dispensed in sterile No. 2 square petri dishes (Eiken Chemical Co., Ltd.) to prepare agar medium. As a plant material, Col-0, which is a wild-type strain of […] used. Seeds, after their surfaces were sterilized, were planted on the agar medium, and vernalized at 4° C. for 16 hours. Growth of the plant was carried out in a growth chamber (SANYO MLR-351) under the conditions of an illuminance of 3 at 23° C. with constant light. The agar medium was allowed to stand upright in the chamber to grow the plant for 7 days. Lids of the petri dishes used for the test were opened, the test results were recorded with a scanner, and with the scanned images, […]

thale cress [2] = assay: Plant growth inhibition index, thale cress on agar medium in test tube (Evaluation 8, 9); format: in vivo, thale cress (Col-0, wild-type strain); design: key: 0: No effect; 1: Growth of the root part was inhibited 50% or less compared with non-treated area.; 2: Growth of the root part was inhibited 50% or more compared with non-treated area.; 3: Growth of the root part was substantially inhibited.; 4: Germination was inhibited; conditions: Concentration 200 μM, 8 days (Evaluation 9, Table 2)
Protocol: 0.44% (w/v) Mixed salts for Murashige and Skoog medium (SIGMA), 1% (w/v) sucrose, and 0.05% (w/v) MES were mixed, and pH of the solution was adjusted to pH 5.7 with potassium hydroxide. 1.5% (w/v) Agar was added to the mixture, which was sterilized at 120° C. in an autoclave for 20 minutes. The test compound and dimethylformamide containing 1.5% of polyoxyethylenesorbitan monolaurate for a control experiment, were added at this stage and blended. In addition, the compound was used by adjusting an addition concentration to 200 μM. Four ml each of the medium was dispensed in sterile glass test tube ([…] RIKA GLASS CO., LTD.) to prepare agar medium.
As a plant material, Col-0, which is a wild-type strain of thale cress, was used.
Seeds, after their surfaces were sterilized, were planted on the agar medium, and the growth of the plant was carried out in a plant incubator (CFH-405) under the conditions of an illuminance of 3 at 23° C. with constant light. The plants on the agar medium were grown for 8 days in the chamber.
The plant growth inhibition effect of the compounds was evaluated by conversion to indexes according to the following investigation criteria.

Japanese bristlegrass = assay: Spray treatment to stems and leaves, killing weed index (Evaluation 10); format: in vivo; conditions: 2000 g active ingredient per hectare, two weeks later
Protocol: (§1) POA allyl phenyl ether (4.1 parts by weight), POE-POP glycol (1 part by weight), POE sorbitan laurate (0.8 parts by weight), glycerin (2.6 parts by weight), dimethylformamide (65.9 parts by weight), N-methylpyrrolidone (5.1 parts by weight), cyclohexanone (15.4 parts by weight), and aromatic hydrocarbon (5.1 parts by weight) were mixed and dissolved to prepare an emulsion. The compounds of the present invention (4 mg) were dissolved in this emulsion (100 μL) to prepare a test emulsion. In addition, POA means “polyoxyalkylene”, POE means “polyoxyethylene”, and POP means “polyoxypropylene.”
(§2) Four hundred μL of the above test emulsion was diluted with 7600 μL of water to use as a test spray liquid.
(§3) Further, 400 μL of the above test emulsion was diluted with 1600 μL of a 1% Tween20 aqueous solution to use as a spray liquid for a small amount spray test.
(§4) For a comparative spray liquid, 53 μL of a 30% pendimethalin emulsion (Gogosan emulsion: manufactured by BASF Japan) as a control pesticides was diluted with 7947 μL of water. Further, for a comparative spray liquid for a small amount spray test, 53 μL of the 30% pendimethalin emulsion was diluted with 1947 μL of water.
(§5) A 150 cm^2 pot was filled with a soil, seeds of each purple amaranth, Japanese bristlegrass, southern crabgrass, and velvet leaf were sown on the surface layer, lightly covered with a soil and grown in a greenhouse. When each plant grew to a plant height of 2 to 9 cm, the test spray liquid was sprayed to the stem and leaf parts with a small spraying machine such that an active ingredient amount was 2000 g per hectare and a sprayed liquid amount was 1000 L per hectare.
(§6) Similarly, the test spray liquid for a small amount spray test was sprayed to the stem and leaf parts with a small spraying machine such that an active ingredient amount was 2000 g per hectare and a sprayed liquid amount was 250 L per hectare.
(§7) Two weeks later, the above-ground grass weight in non-treated areas and the above-ground grass weight in treated areas, by the weed, were measured to calculate a killing weed rate by the following calculating formula.
(§8) (a) Calculating Formula of Weeding Rate Killing weed rate (%)=(above-ground grass weight in non-treated area−above-ground grass weight in treated area)/(above-ground grass weight in non-treated area)×100 (b) Killing Weed Indexes
(§9) The obtained killing weed rates were evaluated, such that a killing weed index was “10” when a killing weed rate is 100%, as “9” when a killing weed rate is 99% to 90%, “8” when a killing weed rate is 89% to 80%, “7” when a killing weed rate is 79% to 70%, “6” when a killing weed rate is 69% to 60%, “5” when a killing weed rate is 59% to 50%, “4” when a killing weed rate is 49% to 40%, “3” when a killing weed rate is 39% to 30%, “2” when a killing weed rate is 29% to 20%, “1” when a killing weed rate is 19% to 10%, and “0” when a killing weed rate is 9% to 0%.

purple amaranth = assay: as above; format: in vivo; conditions: 2000 g active ingredient per hectare, two weeks later
Protocol: as §1, §2, §3, §4, §5, §6, §7, §8, §9

southern crabgrass = assay: as above; format: in vivo; conditions: 2000 g active ingredient per hectare, two weeks later
Protocol: as §1, §2, §3, §4, §5, §6, §7, §8, §9

velvet leaf [3] = assay: as above; format: in vivo; conditions: 2000 g active ingredient per hectare, two weeks later
Protocol: as §1, §2, §3, §4, §5, §6, §7, §8, §9

Japanese millet = assay: Seed treatment, plant growth inhibition index (Evaluation 11); format: in vivo; design: key: 0: No effect; 1: Growth of the root part was inhibited 50% or less compared with non-treated area.; 2: Growth of the root part was inhibited 50% or more compared with non-treated area.; 3: Growth of the root part was substantially inhibited.; 4: Germination was inhibited; conditions: 200 μM, 6 days (9a, 9b: 7 days)
Protocol: (§10) The compound of the present invention (2 mg) was dissolved in a 1.5% Tween dimethylformamide solution (100 μL) to use as a test chemical solution.
(§11) Eight mL of sterilized water was poured to a cherry cup (100Φ×45 mm) lined with a filter paper, subsequently 81.1 μL of the sterilized water was removed, and 81.1 μL of the test chemical solution was added such that a final concentration of the compound was 800 μM.
(§12) Further, cherry cups were similarly prepared such that a final concentration of the compound was 200 μM.
(§13) Seeds (Japanese millet: 3 grains, velvet leaf: 6 grains, Ragweed: 8 grains, morning glory: 2 grains) were planted on the filter paper in the cherry cups, followed by growing the plants in a thermostatic chamber at 25° C. under a light-dark cycle in which a light period is 12 hours and a dark period is 12 hours for 6 days.
(§14) In addition, with regards to the compound (9a) and the compound (9b), the plants were tested for 7 days.
(§15) Plant growth inhibition effects of the compounds were evaluated by conversion to indexes according to the following investigation criteria.

Ragweed = assay: as above; format: in vivo; design: key: 0: No effect; 1: Growth of the root part was inhibited 50% or less compared with non-treated area.; 2: Growth of the root part was inhibited 50% or more compared with non-treated area.; 3: Growth of the root part was substantially inhibited.; 4: Germination was inhibited; conditions: 200 μM, 6 days (9a, 9b: 7 days)
Protocol: as §10, §11, §12, §13, §14, §15

morning glory = assay: as above; format: in vivo; design: key: 0: No effect; 1: Growth of the root part was inhibited 50% or less compared with non-treated area.; 2: Growth of the root part was inhibited 50% or more compared with non-treated area.; 3: Growth of the root part was substantially inhibited.; 4: Germination was inhibited; conditions: 200 μM, 6 days (9a, 9b: 7 days)
Protocol: as §10, §11, §12, §13, §14, §15

velvet leaf [4] = assay: as above; format: in vivo; design: key: 0: No effect; 1: Growth of the root part was inhibited 50% or less compared with non-treated area.; 2: Growth of the root part was inhibited 50% or more compared with non-treated area.; 3: Growth of the root part was substantially inhibited.; 4: Germination was inhibited; conditions: 200 μM, 6 days (9a, 9b: 7 days)
Protocol: as §10, §11, §12, §13, §14, §15

[5] = sprayed liquid amount 1000 L/ha

Structure (SMILES)	twisting of root epidermal cells / abnormality in direction of root growth (thale cress [1]; scanned images)	plant growth inhibition effect (activity on plant growth) (thale cress [1])	Index (thale cress [2])	killing weed index, Japanese bristlegrass (Japanese bristlegrass; sprayed liquid amount 250 L/ha)	killing weed index, Purple amaranth (purple amaranth; sprayed liquid amount 250 L/ha)	killing weed index, Southern crabgrass (southern crabgrass; sprayed liquid amount 250 L/ha)	killing weed index, Velvet leaf (velvet leaf [3]; sprayed liquid amount 250 L/ha)	plant growth inhibition index, Japanese millet (Japanese millet)	plant growth inhibition index, Ragweed (Ragweed)	plant growth inhibition index, Morning glory (morning glory)	plant growth inhibition index, Velvet leaf (velvet leaf [4])	killing weed index, Japanese bristlegrass (Japanese bristlegrass; [5])	killing weed index, Purple amaranth (purple amaranth; [5])	killing weed index, Southern crabgrass (southern crabgrass; [5])	killing weed index, Velvet leaf (velvet leaf [3]; [5])
CCOn1cccc1C(=O)O [Compound 6b, 1-Ethoxy-1H-pyrrole-2-carboxylic acid]	epidermal cells of the roots were twisted leftward and abnormality in a direction of the root growth was observed	–	–	–	–	–	–	–	–	–	–	–	–	–	–
O=C(O)c1cccn1O [Compound 6c, 1-Hydroxy-1H-pyrrole-2-carboxylic acid]	–	no activity was observed	–	–	–	–	–	–	–	–	–	–	–	–	–
CCCCCCCCCOn1cc(Cl)cc1C(=O)O [Compound 9b]	–	–	3	3 (“3” when a killing weed rate is 39% to 30%)	10 (“10” when a killing weed rate is 100%)	2 (“2” when a killing weed rate is 29% to 20%)	2 (“2” when a killing weed rate is 29% to 20%)	0	0	3 (Growth of the stem and leave parts was inhibited 30% or more compared with non-treated area, or growth of the only root part was inhibited 60% or more compared with non-treated area.)	0	–	–	–	–
CCCCCCCCCOn1cccc1C(=O)NC [Compound 9d]	–	–	3	2 (“2” when a killing weed rate is 29% to 20%)	0 (“0” when a killing weed rate is 9% to 0%)	3 (“3” when a killing weed rate is 39% to 30%)	3 (“3” when a killing weed rate is 39% to 30%)	3 (Growth of the stem and leave parts was inhibited 30% or more compared with non-treated area, or growth of the only root part was inhibited 60% or more compared with non-treated area.)	3 (Growth of the stem and leave parts was inhibited 30% or more compared with non-treated area, or growth of the only root part was inhibited 60% or more compared with non-treated area.)	0	0	1 (“1” when a killing weed rate is 19% to 10%)	0 (“0” when a killing weed rate is 9% to 0%)	2 (“2” when a killing weed rate is 29% to 20%)	0 (“0” when a killing weed rate is 9% to 0%)
CCCCCCCCCOn1cccc1C(=O)NCc1ccccc1 [Compound 9e]	–	–	2 (Growth of the root part was inhibited 50% or more compared with non-treated area.)	2 (“2” when a killing weed rate is 29% to 20%)	0 (“0” when a killing weed rate is 9% to 0%)	2 (“2” when a killing weed rate is 29% to 20%)	2 (“2” when a killing weed rate is 29% to 20%)	3 (Growth of the stem and leave parts was inhibited 30% or more compared with non-treated area, or growth of the only root part was inhibited 60% or more compared with non-treated area.)	0	0	0	2 (“2” when a killing weed rate is 29% to 20%)	0 (“0” when a killing weed rate is 9% to 0%)	2 (“2” when a killing weed rate is 29% to 20%)	0 (“0” when a killing weed rate is 9% to 0%)
CCCCCCCCCOn1cccc1C(=O)NCC(F)(F)F [Compound 9f]	–	–	2 (Growth of the root part was inhibited 50% or more compared with non-treated area.)	2 (“2” when a killing weed rate is 29% to 20%)	0 (“0” when a killing weed rate is 9% to 0%)	2 (“2” when a killing weed rate is 29% to 20%)	0 (“0” when a killing weed rate is 9% to 0%)	3 (Growth of the stem and leave parts was inhibited 30% or more compared with non-treated area, or growth of the only root part was inhibited 60% or more compared with non-treated area.)	5 (Growth of the stem and leave parts was inhibited 50% or more compared with non-treated area, or growth of the only root part was inhibited 100% or more compared with non-treated area.)	3 (Growth of the stem and leave parts was inhibited 30% or more compared with non-treated area, or growth of the only root part was inhibited 60% or more compared with non-treated area.)	0	1 (“1” when a killing weed rate is 19% to 10%)	0 (“0” when a killing weed rate is 9% to 0%)	3 (“3” when a killing weed rate is 39% to 30%)	0 (“0” when a killing weed rate is 9% to 0%)
